Laboratory results reported in patent publication US10596259B2, “Tumor radiosensitization with monomethyl auristatin E (MMAE) and derivatives thereof” (The Regents of the University of California, priority 2015, dated 2020).
Read-outs that look alike come from different tables or passages of the source.

Tests used:
Test in all cases: Alamar Blue cell viability assay
Format in all cases: cell-based, Human
779E cells = conditions: Homo sapiens, 72 h
Description: (§1) Cells were plated in 96 well plates at varying cell densities and exposed to range of concentrations of MMAE or paclitaxel for 72 hrs. Alamar Blue (also known as resazurin) was added to the cells and allowed to incubate for 2 hrs at 37° C. Plates were analyzed using a plate reader with fluorescence measured at 560 nm. For irradiated cells, cells were treated with MMAE overnight followed by 6 Gy.
(§2) Cells were plated in 96-well plates and exposed to MMAE or paclitaxel for 72 hours and analyzed at 560 nm. For irradiated cells, cells were treated with MMAE overnight followed by 6 Gy.

PANC-1 cells = conditions: Homo sapiens, PANC-1, 72 h, read-out: IC50
Description: as §1, §2

HCT-116 cells = conditions: Homo sapiens, HCT-116, 72 h, read-out: IC50
Description: Alamar Blue (also known as resazurin) was added to the cells and allowed to incubate for 2 hrs at 37° C. Plates were analyzed using a plate reader with fluorescence measured at 560 nm. For irradiated cells, cells were treated with MMAE overnight followed by 6 Gy.
(§3) Alamar Blue (resazurin) was added to the cells and allowed to incubate for 2 hrs at 37° C. Plates were analyzed using a plate reader with fluorescence measured at 560 nm.
as §2

SQ-9G cells = conditions: 72 hours
Description: as §3

SCC-35 cells = conditions: 72 hours
Description: as §3

CAL-27 cells = conditions: 72 hours
Description: as §3

SCC-61 cells = conditions: 72 hours
Description: as §3

| IC50 (PANC-1 cells; 72 hours exposure (Example 3)) [nM] | IC50 (PANC-1 cells; 72 hours exposure) [nM] | IC50 (HCT-116 cells; 72 hours exposure (Example 3)) [nM] | IC50 (HCT-116 cells; 72 hours exposure) [nM] | Compound | IC50 (779E cells; 72 hours exposure) [nM] | IC50 (779E cells; 72 hours exposure (Example 3)) [nM] | IC50 (SQ-9G cells) [µM] | IC50 (SCC-35 cells) [µM] | IC50 (CAL-27 cells) [µM] | IC50 (SCC-61 cells) [µM] |
| --- | --- | --- | --- | --- | --- | --- | --- | --- | --- | --- |
| 15.1 | 15.1 | 10 | 10 | CC(=O)O[C@H]1C(=O)[C@@]2(C)[C@H]([C@H](OC(=O)c3ccccc3)[C@]3(O)C[C@H](OC(=O)[C@H](O)[C@@H](NC(=O)c4ccccc4)c4ccccc4)C(C)=C1C3(C)C)[C@]1(OC(C)=O)CO[C@@H]1C[C@@H]2O [paclitaxel] | 52 | 52 |  |  |  |  |
|  |  |  |  | N.N.[Cl][Pt][Cl] [cisplatin] |  |  | 13 | 30 | 5 | 10 |
